How the values were obtained:
[1] = system: anti-HIV-1 group O antibodies present in human serum; experiment: Antibody capture format: peptide on solid phase, bound antibody detected with peptide-HRP conjugate; assay type: binding; settings: same peptide as Ag and as HRP conjugate (1:100)
Experimental: In peptide 147-5, the N-terminal glycine was added to function as a spacer group, while the arginine in position 2 was added to enhance the solubility of the peptide in aqueous buffers. Both of these peptides were evaluated for their ability to be recognized by HIV-1 group O serum samples in an antibody capture format. In general, in such an assay, a peptide is bound to a solid phase and bivalent antibody presents in a sample binds to the peptide linked thereto. Bound antibody is subsequently detected using a conjugate made of the peptide in question coupled to horseradish peroxidase. The peptide-HRP conjugate binds to antibody which in turn is bound to the solid phase linked peptide. Methods suitable for preparing such conjugates may be found readily in the scientific literature and are well known to those versed in the art.
Microwell plates were pre-coated with either peptide 147-4 or 147-5. A dilution of a serum sample was then incubated for 1 hour at 37° C., after which the plate was washed extensively. A 1:100 dilution of either peptide 147-4 or 147-5 conjugated to HRP was then added and allowed to incubate for an additional hour at 37° C. Following this incubation, the plates were again thoroughly washed. The presence of bound conjugate was detected by addition of substrate for HRP (O-phenylenediamine) and H2O2.
The peptides were evaluated for their ability to be recognized by anti-HIV-1 group O antibodies present in human serum from infected individuals. All group O samples were confirmed to be positive for HIV-1 group O by reverse transcriptase-polymerase chain reaction (RT-PCR) amplification of viral gp41 sequences using O-specific primers. The identity of the PCR product was further confirmed by DNA sequencing.

[2] = system: antibodies to HIV-1 group O; experiment: Chemiluminescent ELISA: serially diluted peptide on streptavidin-coated wells, serum ODS007b 1:60, anti-human IgG:HRP, luminol; assay type: binding; settings: serum ODS007b 1:60
Experimental: To compare the performance of peptide 147 to another genuine group O sequence, the peptide corresponding to the ANT70 sequence was synthesized (peptide 80). Peptides 147 and 80 were dissolved at the same concentration, serially diluted, and bound to streptavidin-coated wells. A 1:60 dilution of serum sample ODS007b (see Table 3) was added to all wells and incubated. After washing, an anti-human IgG:HRP conjugate was added, incubated, and the wells again thoroughly washed. In this case, a chemiluminescent substrate was used, consisting of luminol and a peracid salt. The emitted light was quantified using a luminometer. The results are tabulated in Table 4 and shown graphically in FIG. 2.

[3] = system: group O antibody; experiment: ELISA with recombinant antigen coated at 0.5 μg/ml, group O sera, HRP-labeled mouse anti-human IgG; assay type: binding
Experimental: Performance of group M/group O “mosaic” constructs for group O antibody detection. The protein expressed as described was coated at a concentration of 0.5 μg/ml into the wells of microtiter plates for evaluation. Following coating of the protein, any remaining binding sites on the plastic were block with bovine serum albumin. Dilutions of group O sera were then tested for their ability to recognize the recombinant antigen. Bound antibodies were detected by incubation with HRP-labeled mouse anti-human IgG conjugate, and the bound conjugate was subsequently detected by addition of OPD and H2O2.

[4] = system: type B sample; experiment: ELISA with recombinant antigen coated at 0.5 μg/ml, type B sample; assay type: binding, human

In the case of “EQQRLNSWGCKGRIICYTSARWH (HIV Consensus) [peptide 147-4, variant of peptide 147]”, the “Optical Density (OD)492” value ([1]; negative control) is reported as 0.010 OD, the “Optical Density (OD)492” value ([1]; sample ODS001 (1:200)) is reported as over 2.500 OD and the “Optical Density (OD)492” value ([1]; sample ODS002 (1:175)) is reported as 0.785 OD. For the same molecule, the “Optical Density (OD)492” value ([1]; sample ODS006 (1:100)) was 0.133 OD and the “Optical Density (OD)492” value ([1]; sample ODS007 (1:1,500)) was 0.241 OD.

With “GRETLMQDQQRLNSWGCKGRIICYTSARWH (HIV Consensus) [peptide 147-5, longer variant of peptide 147 with N-terminal glycine spacer and arginine to enhance solubility]” the “Optical Density (OD)492” value ([1]; negative control) was 0.022 OD, the “Optical Density (OD)492” value ([1]; sample ODS001 (1:200)) was over 2.500 OD and the “Optical Density (OD)492” value ([1]; sample ODS002 (1:175)) was 1.343 OD. For the same molecule, the “Optical Density (OD)492” value ([1]; sample ODS006 (1:100)) was 0.266 OD and the “Optical Density (OD)492” value ([1]; sample ODS007 (1:1,500)) was 0.316 OD.

With “NQQLLSLWGCKGKLVCYTSVKWN (Human immunodeficiency virus type 1) [peptide 80, reference compound]” the luminescent units ([2]; peptide 0.020 ug/ml) was 0.387 luminescent units, the luminescent units ([2]; peptide 0.039 ug/ml) was 0.376 luminescent units and the luminescent units ([2]; peptide 0.078 ug/ml) was 0.621 luminescent units. It also gave a luminescent units ([2]; peptide 0.156 ug/ml) of 1.288 luminescent units, a luminescent units ([2]; peptide 0.313 ug/ml) of 2.294 luminescent units and a luminescent units ([2]; peptide 0.625 ug/ml) of 2.854 luminescent units. The luminescent units ([2]; peptide 1.250 ug/ml) was 2.908 luminescent units and the luminescent units ([2]; peptide 2.500 ug/ml) was 1.821 luminescent units.

B1: DHFR-hES-MH: truncated dihydrofolate reductase fusion, mosaic group M/group O gp41 recombinant antigen with myc sequence and his6 tail (protein)
chain: MRGSGIMVRPLNSIVAVSQNMGIGKNGDLPWPPLRNEFKYFQRMTTTSSVEGKQNLVIMGRKTWFSIPEKNRPLKDRINIVLSRELKEPPRGAHFLAKSLDDALRLIEQPELASKVDMVWIVGGSSVYQEAMNQPGHLRLFVTRIMQEFESDTFFPEIDLGKYKLLPEYPGVLSEVQEEKGIKYKFEVYEKKGSRSARLLLSGIVQQQNNLLRAIEAQQHMLQLTAWGIKQLRARLQALETLMQNQQRLNSWGCKGRIICYTSARWHASWSNKSLEDIWDNMTWMQWDQQVNNVSSIIYDKILEAQDQQEENVRELLELDKWASLWNWFDITNWLWYIKIFIMIVGPEQKLISEEDLNSAVDHHHHHH
modifications: HIV Consensus
B1 showed an OD492 ([3]; sample ODS001 (dilution)) of 1.179 OD, an OD492 ([3]; sample ODS002 (dilution)) of 1.323 OD and an OD492 ([3]; sample neg. control 1) of −0.061 OD. It also gave an OD492 [4] of 0.685 OD.
